Source: PMC9532951, “Identification and characterization of a novel SNAT2 (SLC38A2) inhibitor reveals synergy with glucose transport inhibition in cancer cells” (Frontiers in Pharmacology, 2022)
“And” between values parts separate entries of the source, which are not always exact repeats. Equal values may be shown once.

Assays:
Format in all cases: cell-based, human
[1] = tested on: SNAT1/2; assay: FMP assay: depolarisation by amino acid substrates in amino acid depleted HCC1806 cells; conditions: for FMP fluorescence reading: amino acid 1 mM final
Description: The FLIPR Membrane Potential Blue Explorer Kit (Molecular Devices) was used to characterise inhibitors and to optimise a high-throughput compound screen. Cells were seeded at approximately 60,000 cells/well on a 96-well plate and allowed to attach and grow overnight in a cell incubator. […] Cells were then washed once with mHBSS and incubated with 50 µl of the mHBSS-resuspended FMP assay dye and 50 µl of mHBSS (with or without inhibitors) and incubated at room temperature for 30 min. The plate was then placed in an EnSpire Multimode plate reader (PerkinElmer) and four sequential measurements of fluorescence were recorded as a baseline reference. Immediately after the baseline measurements were taken, 25 µl of 5 mM glutamine dissolved in mHBSS was injected into each well and the plate was shaken orbitally for 5 s before a series of consecutive fluorescence measurements were taken. The excitation wavelength was set to 530 nm and the emission was detected at 565 nm. […] After the assay was complete, the liquid content of the plate was carefully removed, and the cell monolayer inspected to ensure it remained intact throughout the course of the assay.

[2] = tested on: HPAFII cells; assay: Growth assay (IncuCyte confluence), HPAFII; design: key to Growth (Figure 6A) / cell confluence (Figure 6F): % confluence; conditions: CB-839 10uM, replicates 1-3
Description: (§1) Cells were seeded on 96-well flat bottom plates at approximately 3000 cells/well and incubated in growth medium (DMEM/F12 supplemented with 10% FBS, 2 mM glutamine) for 24 h. The next day, the growth medium was aspirated and exchanged with 300 μL/well of growth medium containing compounds at the indicated concentration. For live cell analysis, plates were placed in the IncuCyte system (Essen Bioscience), which was housed in a cell incubator (37°C, humidified atmosphere composed of 95% air and 5% CO2) and confluence measured at 6-h intervals or at the assay endpoint when untreated control cells reached a confluency >90%. Antibiotics (10 U/mL penicillin and 10 μg/ml streptomycin) were included in the treatment solutions.
(§2) Growth curves were generated using the Gompertz function of OriginPro software: y=ae^−e^(−k(x−xc))
(§3) Where a is the maximum confluence or upper asymptote, k is the growth rate coefficient, xc is the time point at which 50% confluence is reached (inflection point) and e is Euler’s number. Cell growth data are shown as % confluence.
(§4) Synergism between drug combinations was quantified using ZIP synergy scoring as calculated by SynergyFinder ([Yadav et al., 2015]).

[3] = tested on: MDA-MB-231 cells; assay: Growth assay (IncuCyte confluence), MDA-MB-231; design: key to Growth (Figure 6A) / cell confluence (Figure 6F): % confluence; conditions: MDA-MB-231; CB-839 10uM; replicates 1-3
Description: as §1, §2, §3, §4

[4] = tested on: SNAT1 and SNAT2; assay: FMP assay: inhibition of glutamine-induced membrane depolarisation in amino acid depleted HCC1806 cells; conditions: FMP assay, top hit compounds from the HTS, 9-point dose-response, n = 6
Description: The FLIPR Membrane Potential Blue Explorer Kit (Molecular Devices) was used to characterise inhibitors and to optimise a high-throughput compound screen. Cells were seeded at approximately 60,000 cells/well on a 96-well plate and allowed to attach and grow overnight in a cell incubator. […] Cells were then washed once with mHBSS and incubated with 50 µl of the mHBSS-resuspended FMP assay dye and 50 µl of mHBSS (with or without inhibitors) and incubated at room temperature for 30 min. The plate was then placed in an EnSpire Multimode plate reader (PerkinElmer) and four sequential measurements of fluorescence were recorded as a baseline reference. Immediately after the baseline measurements were taken, 25 µl of 5 mM glutamine dissolved in mHBSS was injected into each well and the plate was shaken orbitally for 5 s before a series of consecutive fluorescence measurements were taken. The excitation wavelength was set to 530 nm and the emission was detected at 565 nm. The Δ fluorescent signal reported in the figures was taken 30 s after substrate addition. After the assay was complete, the liquid content of the plate was carefully removed, and the cell monolayer inspected to ensure it remained intact throughout the course of the assay.
IC50 were calculated using equation y=ymax(1−x/x+IC50)

IC50 [4] [µM] | SMILES | FMP fluorescence reading ([1]; t=0 s) | FMP fluorescence reading ([1]; t=15 s) | FMP fluorescence reading ([1]; t=30 s) | FMP fluorescence reading ([1]; t=45 s) | FMP fluorescence reading ([1]; t=60 s) | FMP fluorescence reading ([1]; t=75 s) | FMP fluorescence reading ([1]; t=90 s) | FMP fluorescence reading ([1]; t=105 s) | FMP fluorescence reading ([1]; t=120 s) | FMP fluorescence reading ([1]; t=135 s) | FMP fluorescence reading ([1]; t=-15 s) | FMP fluorescence reading ([1]; t=-30 s, replicates 1-3) | FMP response as substrate ([1]; 1 mM) | cell confluence (Figure 6F) [2] | cell confluence (Figure 6F) [3]
 | NC(=O)CCC(N)C(=O)O (stereo in doubt) [D-glutamine] | 42839 and 39003 and 33523 | 50034 and 45149 and 38644 | 50270 and 45056 and 39117 | 50350 and 45753 and 39233 | 50602 and 45748 and 39437 | 50996 and 45609 and 39481 | 51179 and 45923 and 39430 | 51145 and 45682 and 40002 | 51340 and 46043 and 40162 | 51584 and 46357 and 40097 | 43005 and 38805 and 33297 | 42947 and 39128 and 33746 |  |  | 
 | C[C@H](N)C(=O)O [Alanine] | 54596 and 53457 and 39829 | 99809 and 107431 and 86655 | 104988 and 111613 and 89183 | 107389 and 114043 and 90927 | 109154 and 114952 and 91569 | 110049 and 115127 and 91618 | 110411 and 114906 and 91021 | 110237 and 114204 and 90013 | 109638 and 112786 and 88869 | 108521 and 111868 and 87878 | 54286 and 53641 and 39860 | 53991 and 53679 and 39761 | strongest response |  | 
 | N=C(N)NCCC[C@H](N)C(=O)O [Arginine] | 57601 and 55451 and 44145 | 59785 and 58453 and 46579 | 60283 and 58803 and 46849 | 60859 and 58896 and 47284 | 61207 and 59368 and 47582 | 60824 and 59447 and 47575 | 61207 and 59194 and 47872 | 61703 and 59566 and 47735 | 61529 and 59552 and 47812 | 61459 and 60027 and 47987 | 57812 and 55789 and 44423 | 57675 and 55602 and 44293 |  |  | 
 | O=C(Cc1cccc(OC(F)(F)F)c1)Nc1ccc(CCCCc2nnc(NC(=O)Cc3ccccn3)s2)nn1 [CB-839] |  |  |  |  |  |  |  |  |  |  |  |  |  | 88.1 and 96.7 and 88.9 | 98.45 and 98.5 (2×)
3.84 | CCN1CCN(Cc2nn(-c3ccc(C)c(Cl)c3)c(N)c2-c2ccccc2)CC1 [Compound 55_A] |  |  |  |  |  |  |  |  |  |  |  |  |  |  | 
83.5 | C#Cc1cccc(NC(=O)N2CC(S(=O)(=O)N3CCN(C(=O)OC(C)(C)C)CC3)C2)c1 [Compound 55_G] |  |  |  |  |  |  |  |  |  |  |  |  |  |  | 
